Data reported in patent US10653680B2, “Treatment of impulsivity-related disorders” (OXFORD UNIVERSITY INNOVATION LIMITED, priority 2016, dated 2020).

Columns and labels:
healthy participants = assay: Cambridge Gambling Task (CGT); format: in vivo, human
Experimental: Twenty healthy participants (7 females, 13 males; mean age 25.1 years, range 20-38 years; mean BMI 22.7 kg/m^2, range 18.7-30.0 kg/m^2) were included in the study after giving full informed written consent.
Ebselen capsules and identical matching placebo (containing microcrystalline cellulose) were purchased from Shasun Pharmaceuticals Ltd. Participants were tested twice (seven days apart) receiving on one occasion ebselen and, on the other, placebo in a randomised, double-blind, cross-over design. Ebselen was administered in 6×200 mg capsules in three doses given over two days. The order of receiving either the ebselen or the placebo was randomised.
On the day before cognitive testing, participants took the first dose at 1 pm and the second dose at 10 pm. The final dose was taken around 3 hrs prior to cognitive testing. Participants were sent text message reminders a few minutes before they were due to take medication, and were asked to confirm receipt of the messages. The cognitive tasks were carried out immediately after a magnetic resonance spectroscopy study.
The Cambridge Gambling Task (CGT) from the Cambridge Neuropsychological Test Automated Battery (CANTAB, version 3.0.0, Cambridge Cognition Ltd., Cambridge, UK) (Rogers et al.; Neuropsychopharmacology, 1999, 20, 322-333; Clark et al.; Brain, 2008, 131, 1311-1322) assesses decision-making and risk-taking behaviour outside a learning context. In each trial, participants are shown ten boxes at the top of the screen, with some boxes being red and some being blue. The ratio of red to blue boxes varies from 9:1; 8:2; 7:3; 6:4; 5:5 and vice versa in a pseudo-random order.
Participants are informed that a yellow token is hidden inside one of the boxes and asked to indicate the colour box in which the token is most likely to be hidden, by pressing the colour (RED or BLUE) in a response panel at the bottom of the screen. Following their response, the participants indicate confidence in their selection by betting a proportion of points they are allocated (starting with 100 points). […] On each trial five bets are offered, and each bet represents a fixed percentage of the current total points score (5, 25, 50, 75 and 95%). Possible bets are presented sequentially in a box on the right of the display and participants touch the box to select the bet. If correct, the bet value is added to their total points on the left of the panel, and if incorrect, it is subtracted from the total points.
Participants are asked to accumulate as many points as possible. […] Participants perform the task in four blocks of two separate conditions, ascending and descending bet value (the condition order is counterbalanced across participants). In the ascending condition, bets increase at 2.5 s time intervals from 5% to 95% until participants make their selection. This means that if a participant bets at the first value presented, then they bet only 5% of their total points, and if they wait for the highest value, they bet 95% of their total points. In the descending condition bets start from 95% and decrease to 5%. Low bets in the ascend condition and high bets in the descend condition reveal an impulsive betting strategy, while high bets in both conditions reveal a risk taking or reward seeking strategy.
From the first stage of the task (selecting the likely colour of the box in which the token is hidden), the outcome measures are deliberation time and quality of decision making. Deliberation time is the mean latency from presentation of coloured boxes to participant selection. Quality of decision making refers to the proportion of trials on which the more likely outcome is chosen. From the gamble stage, the outcome measures are risk taking, risk adjustment and delay aversion. Risk taking refers to the mean proportion of current points that the subject stakes on each gamble when the more likely outcome is selected, and can be regarded as an index of reward seeking or loss aversion. […]

rats [1] = assay: 5 Choice Serial Reaction Time Task (5-CSRTT); format: in vivo, rats (males; Long Evans)
Experimental: Testing was carried out in Vancouver (Canada) using rats (males; Long Evans from Charles River) which were given at least two weeks to acclimatise to the animal facility. They were housed in pairs on a 12 hour reverse light-dark cycle (lights off at 7 am). In the second week of acclimatisation, rats were handled briefly each day. […] For each task, there was then a habituation session to the operant boxes before training began.
Ebselen, cocaine and 2,5-dimethoxy-4-iodoamphetamine (DOI) were obtained from Sigma Aldrich, and MDL 100,907 was obtained from Tocris. Ebselen was dissolved in 0.5M DMSO and made up to injection volume (8 ml/kg) using 4% cyclodextrin. Cocaine and DOI were dissolved in 0.9% saline. MDL 100,907 was dissolved in 0.9% saline and the pH was adjusted to 6.25 using 1M NaOH and 0.1M HCl.
All data for the cognitive tasks are presented as mean+SEM change from baseline: • performance on drug day−performance on the previous day
The data were analysed with repeated measures ANOVA with dose as a within-subject factor. Where appropriate, post-hoc analysis was performed using Student's paired t-test.
This test was performed as described previously (Bari et al., Nature Protocols, 2008, 3(5), 759-767; Robbins, Psychopharmacology, 2002, 163(3), 362-380).
Fourteen rats were trained to respond to brief visual cues presented in one of five target areas with an inter-trial interval of 5 seconds. On the day of testing in the presence of ebselen, the inter-trial interval was lengthened to 7 seconds to cause a reliable increase in premature responding.
Ebselen and vehicle were administered by intraperitoneal (i.p.) injection 1 hour prior to testing. Three doses of ebselen (2, 5 or 10 mg/kg) were studied, administration being in a random order that was determined by a Latin square design. Rats were run five days a week, with the treatment day falling on day three.
Following ebselen, 3 doses of MDL 100,907 (0.01, 0.03 and 0.1 mg/kg, i.p.) were tested in a Latin square design with the first injection occurring one week after the final injection of ebselen. MDL 100,907 is a selective 5-HT2A antagonist. Rats were similarly run five days a week with injections falling on the third day, and the lengthened inter-trial interval was used only on the drug-administration day.
The Latin square design (for both the 5-CSRTT and rGT experiments) was counterbalanced, based on performance in the last training day of each task. A one week wash-out period was given between drug-administration days. A baseline session was performed both the day before and the day after treatment to ensure stable off-drug performance.

rats [2] = details: in rats; cited from earlier work

SMILES: O=c1c2ccccc2[se]n1-c1ccccc1 [Ebselen, 2-phenyl-1,2-benzisoselenazol-3(2H)-one]
- effect on deliberation time (healthy participants; ebselen vs placebo): no significant effects
- effect on quality of decision making (healthy participants; ebselen vs placebo): no significant effects
- effect on reward seeking/risk taking (healthy participants; ebselen vs placebo): increase
- effect on risk adjustment (healthy participants; ebselen vs placebo): no significant effects
- effect on delay aversion (healthy participants; ebselen vs placebo, irrespective of probability of favourable outcome and token ratio): significant decrease
- Delay aversion (%), Mean ± SEM (healthy participants; human, ebselen 6x200 mg in three doses over two days, final dose around 3 hrs before testing, vs placebo p = 0.010): 9.0 ± 2.14%
- Reward seeking (%), Mean ± SEM (healthy participants; human, same regimen, vs placebo p = 0.046): 63.9 ± 1.45%
- Risk adjustment, Mean ± SEM (healthy participants; human, same regimen, vs placebo p = 0.107): 2.1 ± 0.18
- Deliberation time (ms), Mean ± SEM (healthy participants; human, same regimen, vs placebo p = 0.131): 1408 ± 78 ms
- Quality of decision making (%), Mean ± SEM (healthy participants; human, same regimen, vs placebo p = 0.155): 99.3 ± 0.3%
- premature responding (rats [1]; ebselen 2 mg/kg i.p. vs vehicle, p=0.158): No effect
- premature responding (rats [1]; ebselen 5 mg/kg i.p. vs vehicle, p=0.011): statistically significant decreases
- premature responding (rats [1]; ebselen 10 mg/kg i.p. vs vehicle, p=0.032): statistically significant decreases
- premature responding (rats [1]; ebselen 2, 5, 10 mg/kg i.p. 1 hour prior to testing, vs vehicle, ANOVA p=0.049, inter-trial interval 7 s): decreased premature responding in a dose-dependent manner
- any other measures of the 5-CSRTT (rats [1]; ebselen 2, 5, 10 mg/kg i.p., p=0.192-0.805): No effects
- LD50 concentration (rats [2]): greater than 1000 mg/kg
